According to patent US4582822A, “Antibiotic A80190, pharmaceutical compositions containing same and method of use” (Eli Lilly and Company, priority 1984, dated 1986):
≈ marks a conversion by molar mass, not a printed value. Where “and” joins values, the source holds several entries; their conditions need not be identical. Equal entries are not always repeated.

What was measured:
NRRL 15878 = assay: Resistance to antibiotics, sensitivity discs on seeded agar; format: cell-based, Actinomadura oligospora
Experimental: (§1) Resistance to antibiotics was measured by padding antibiotic sensitivity discs onto the surface of seeded ISP No. 2 agar plates.
(§2) Table III lists the resistance of the strain to various antibiotics at the concentrations indicated and compares it to that of A. macra.

A. macra = assay: as above; format: cell-based, Actinomadura macra
Experimental: as §1, §2

adult housefly = assay: Insecticidal activity; settings: in vivo
Petococcus prevoti 1281 = assay: Agar-dilution MIC, anaerobic bacteria; format: cell-based; settings: 24-hour incubation
Solubility = format: physicochemical
Excerpt: (§3) Antibiotic A80190 has been assigned structure 1 based on X-ray crystallographic studies. A80190 (in its free acid form) has the following characteristics: […]

blowfly larvae = assay: Insecticidal activity; settings: in vivo
[1] = test system: Propionibacterium acnes 79; assay: Agar-dilution MIC, anaerobic bacteria; format: cell-based; settings: 24-hour incubation
crabgrass = assay: Herbicidal activity; format: in vivo; settings: 200 gpa; either pre-emergence or post-emergence
[2] = test system: Clostridium perfringens 81; format: cell-based; settings: 24-hour incubation
mosquito larvae = assay: Insecticidal activity; settings: in vivo
[3] = test system: Bacteroides vulgatis 1211; assay: Agar-dilution MIC, anaerobic bacteria; format: cell-based; settings: 24-hour incubation
mustard = assay: Herbicidal activity; format: in vivo; settings: 200 gpa; either pre-emergence or post-emergence
[4] = test system: Eubacterium aerofaciens 1235; assay: Agar-dilution MIC, anaerobic bacteria; format: cell-based; settings: 24-hour incubation
Staphylococcus aureus = assay: Disc-diffusion, zone of inhibition; format: cell-based; settings: 6-mm pads dipped in 1 mg/ml
Experimental: (§4) The inhibitory activity of A80190 is illustrated in Table VI. Activity was measured by the conventional disc-diffusion method (6-mm pads were dipped in solutions containing 1 mg of compound per ml of solution; pads were placed on agar plates seeded with test organism).

[5] = test system: Saccharomyces pastorianus; assay: Disc-diffusion, zone of inhibition; format: cell-based; settings: 6-mm pads dipped in 1 mg/ml
Experimental: as §4

Neurospora crassa = assay: Disc-diffusion, zone of inhibition; format: cell-based; settings: 6-mm pads dipped in 1 mg/ml
Experimental: as §4

Mycobacterium avium = assay: Disc-diffusion, zone of inhibition; format: cell-based; settings: 6-mm pads dipped in 1 mg/ml
Experimental: as §4

Micrococcus luteus = assay: Disc-diffusion, zone of inhibition; format: cell-based; settings: 6-mm pads dipped in 1 mg/ml
Experimental: as §4

Bacillus subtilis = assay: Disc-diffusion, zone of inhibition; format: cell-based; settings: 6-mm pads dipped in 1 mg/ml
Experimental: as §4

Candida albicans = assay: Disc-diffusion, zone of inhibition; format: cell-based; settings: 6-mm pads dipped in 1 mg/ml
Experimental: as §4

[6] = test system: Peptostreptococcus anaerobius 1428; assay: Agar-dilution MIC, anaerobic bacteria; format: cell-based; settings: 24-hour incubation
[7] = test system: volatile-fatty-acid (VFA) production, rumen; assay: Ruminant feed-utilization efficiency, VFA ratio treated/control flasks
Excerpt: The efficiency of feed use can be monitored by observing the production and concentration of propionate compounds in the rumen using the method described by Arthur P. Raun in U.S. Pat. No. 3,794,732 (see especially Example 5).

[8] = test system: natural and artificial membranes; assay: Cation permeability of membranes
[9] = pKa in 66% aqueous dimethylformamide; format: physicochemical
Excerpt: as §3

pigweed = assay: Herbicidal activity; format: in vivo; settings: 200 gpa; either pre-emergence or post-emergence
Caenorhabditis elegans = assay: Anthelmintic activity; settings: in vivo
Polio III virus = format: cell-based; settings: tissue culture
Treponema hyodysenteriae = assay: Growth inhibition, swine dysentery agent; format: cell-based
[10] = Ionophorous (ion-transport) activity with cations
[11] = test system: Bacteroides melaninogenicus 2736; assay: Agar-dilution MIC, anaerobic bacteria; format: cell-based; settings: 24-hour incubation
Experimental: (§5) One important aspect of the antimicrobial activity of A80190 compounds relates to their activity against anaerobic bacteria. The minimal inhibitory concentrations (MIC's) at which A80190 inhibits various anaerobic bacteria, as determined by standard agar-dilution assay, are summarized in Table VII. End points were read after 24-hour incubation.

[12] = test system: Bacteroides thetaiotaomicron 1438; assay: Agar-dilution MIC, anaerobic bacteria; format: cell-based; settings: 24-hour incubation
Experimental: as §5

[13] = test system: Bacteroides fragilis 1936B; assay: Agar-dilution MIC, anaerobic bacteria; format: cell-based; settings: 24-hour incubation
Experimental: as §5

[14] = test system: Bacteroides corrodens 1874; assay: Agar-dilution MIC, anaerobic bacteria; format: cell-based; settings: 24-hour incubation
Experimental: as §5

[15] = test system: Clostridium septicum 1128; assay: Agar-dilution MIC, anaerobic bacteria; format: cell-based; settings: 24-hour incubation
Experimental: as §5

[16] = test system: Bacteroides melaninogenicus 1856/28; assay: Agar-dilution MIC, anaerobic bacteria; format: cell-based; settings: 24-hour incubation
Experimental: as §5

[17] = test system: Bacteroides fragilis 1877; assay: Agar-dilution MIC, anaerobic bacteria; format: cell-based; settings: 24-hour incubation
Experimental: as §5

[18] = test system: Clostridium difficile 2994; assay: Agar-dilution MIC, anaerobic bacteria; format: cell-based; settings: 24-hour incubation
Experimental: as §5

Bacteroides fragilis 111 = assay: Agar-dilution MIC, anaerobic bacteria; format: cell-based; settings: 24-hour incubation
Experimental: as §5

[19] = test system: Peptostreptococcus intermedius 1624; assay: Agar-dilution MIC, anaerobic bacteria; format: cell-based; settings: 24-hour incubation
two-spotted spider mite = assay: Acaricidal activity; settings: in vivo
[20] = test system: Fusobacterium necrophorum 6054A; assay: Agar-dilution MIC, anaerobic bacteria; format: cell-based; settings: 24-hour incubation
Mexican bean beetle = assay: Insecticidal activity; settings: in vivo
southern armyworm = assay: Insecticidal activity; settings: in vivo
Eimeria tenella = assay: In vitro tissue culture screen, anticoccidial; format: cell-based; parameters: key: C: cytotoxic; A: active; S: slightly active; N: not active
Excerpt: Anticoccidial activity is an important property of the A80190 compounds. Table VIII summarizes the results of an in vitro tissue culture screen of A-80190 compounds vs. Eimeria tenella.

mitochondrial ATPase = assay: Inhibition of mitochondrial ATPase in vitro; format: biochemical
Excerpt: In yet another aspect, the A80190 compounds are active as inhibitors of the enzyme ATPase. ATPase, an alkali-metal-sensitive enzyme found in cell membranes, is involved in the energy necessary for active transport. "Active transport" refers to the energy requiring series of operations whereby intracellular and extracellular fluids maintain their compositions. Inhibitors of ATPase reduce the energy required for active transport. In vitro tests have shown that A80190 inhibits mitochondrial ATPase with a half-effective concentration (IC50) of 0.5 μg/ml.

[21] = test system: Fusobacterium symbiosum 1470; assay: Agar-dilution MIC, anaerobic bacteria; format: cell-based; settings: 24-hour incubation
[22] = test system: Peptococcus asaccharolyticus 1302; assay: Agar-dilution MIC, anaerobic bacteria; format: cell-based; settings: 24-hour incubation

## Oleandomycin
NRRL 15878; 15 μg
  Resistance to Antibiotics: -

## NC[C@H]1O[C@H](O[C@H]2[C@H](O)[C@@H](O[C@H]3O[C@H](CO)[C@@H](O)[C@H](N)[C@H]3O)[C@H](N)C[C@@H]2N)[C@H](N)C[C@@H]1O [Tobramycin]
A. macra; 10 μg
  Resistance to Antibiotics: -

## CC[C@@H](O)[C@]1(C)C[C@H](C)[C@@](O)([C@H]2C[C@H](C)[C@H]([C@]3(C)C[C@@H](O[C@H]4CC[C@H](OC)[C@@H](C)O4)[C@H]([C@@H]4CC[C@@]5(O[C@H]([C@@H](C)[C@@H](OC)[C@H](C)C(=O)O)[C@H](C)[C@@H](OC)[C@H]5C)O4)O3)O2)O1 [A80190]
Adult housefly
  active at levels as low as: 35 ppm
Petococcus prevoti 1281
  MIC: < 0.5 µg/mL
Solubility; organic solvents
  Solubility: soluble in lower alcohols such as methanol, ketones such as acetone, esters such as ethyl acetate, halogenated hydrocarbons such as chloroform and hydrocarbons such as diethyl ether, benezene, toluene and warm hexane
Solubility; water
  Solubility: Insoluble in water
Blowfly larvae
  active at levels as low as: 35 ppm
[1]
  MIC: 1 µg/mL (≈ 1.21 µM)
crabgrass
  active at (application rate): 2 lb/acre
[2]
  MIC: < 0.5 µg/mL
Mosquito larvae
  active at levels as low as: < 50 ppm
[3]
  MIC: 16 µg/mL (≈ 19.3 µM)
mustard
  active at (application rate): 2 lb/acre
[4]
  MIC: < 0.5 µg/mL
Staphylococcus aureus
  Zone of Inhibition: 17 mm diameter
[5]
  Zone of Inhibition: 10 mm diameter
Neurospora crassa
  Zone of Inhibition: 14 mm diameter
Mycobacterium avium
  Zone of Inhibition: 21 mm diameter
Micrococcus luteus
  Zone of Inhibition: 20 mm diameter
Bacillus subtilis
  Zone of Inhibition: 23 mm diameter
Candida albicans
  Zone of Inhibition: 14 mm diameter
[6]
  MIC: 1 µg/mL (≈ 1.21 µM)
[7]; 0.3 mcg/ml
  Molar % Acetate (ratio treated/control): 0.970
  Molar % Butyrate (ratio treated/control): 0.819
  Molar % Propionate (ratio treated/control): 1.220
  Total VFA/Control VFA: 0.967 mM/L
[7]; 1 mcg/ml
  Molar % Acetate (ratio treated/control): 0.986 and 0.892 and 1.016 and 0.926
  Molar % Butyrate (ratio treated/control): 0.851 and 0.813 and 0.706 and 0.529
  Molar % Propionate (ratio treated/control): 1.185 and 1.403 and 1.247 and 1.566
  Total VFA/Control VFA: 0.916 mM/L and 0.887 mM/L and 0.857 mM/L and 0.913 mM/L
[7]; 3 mcg/ml
  Molar % Acetate (ratio treated/control): 0.998
  Molar % Butyrate (ratio treated/control): 0.611
  Molar % Propionate (ratio treated/control): 1.368
  Total VFA/Control VFA: 0.963 mM/L
[8]
  cation permeability: alters the cation permeability of both natural and artificial membranes
[9]
  pKa: 6.2
pigweed
  active at (application rate): 2 lb/acre
Caenorhabditis elegans
  active at levels as low as: 20 ppm
Polio III virus
  active at a level of: 2000 µg/mL
Treponema hyodysenteriae
  inhibits the growth at levels as low as: 0.39 µg/mL
[10]; 0.2 μg/ml, Cs+ vs Na+
  ionophorous effect, cation preference: even greater ionophorous effect with Cs^+ than with Na^+ as cation
[10]; 0.5 μg/ml
  ionophorous activity: showed ionophorous activity
[10]; 0.5 μg/ml, Na+, K+ and Rb+ vs Cs+ or Li+
  ionophorous activity, cation preference: activity with Na^+, K^+ and Rb^+ was better than that with Cs^+ or Li^+
[11]
  MIC: > 128 µg/mL
[12]
  MIC: > 128 µg/mL
[13]
  MIC: > 128 µg/mL
[14]
  MIC: > 128 µg/mL
[15]
  MIC: < 0.5 µg/mL
[16]
  MIC: > 128 µg/mL
[17]
  MIC: > 128 µg/mL
[18]
  MIC: < 0.5 µg/mL
Bacteroides fragilis 111
  MIC: > 128 µg/mL
[19]
  MIC: 1 µg/mL (≈ 1.21 µM)
two-spotted spider mite
  active when applied at a rate as low as: 25 ppm
[20]
  MIC: 16 µg/mL (≈ 19.3 µM)
Mexican bean beetle
  active at levels as low as: < 100 ppm
Southern armyworm
  active at levels as low as: < 100 ppm
Eimeria tenella; 0.008 μg/ml
  Activity vs. Eimeria tenella In Vitro: A
Eimeria tenella; 0.04 μg/ml
  Activity vs. Eimeria tenella In Vitro: A
Eimeria tenella; 0.2 μg/ml
  Activity vs. Eimeria tenella In Vitro: A
Eimeria tenella; 1 μg/ml
  Activity vs. Eimeria tenella In Vitro: C
Eimeria tenella; 5 μg/ml
  Activity vs. Eimeria tenella In Vitro: C
Mitochondrial ATPase
  half-effective concentration (IC50): 0.5 µg/mL
[21]
  MIC: 8 µg/mL (≈ 9.65 µM)
[22]
  MIC: 1 µg/mL (≈ 1.21 µM)

## NC[C@@H]1O[C@H](O[C@H]2[C@@H](O)[C@H](O[C@@H]3[C@@H](O)[C@H](N)C[C@H](N)[C@H]3O[C@H]3O[C@H](CN)[C@@H](O)[C@H](O)[C@H]3N)O[C@@H]2CO)[C@H](N)[C@@H](O)[C@@H]1O [Neomycin]
NRRL 15878; 30 μg
  Resistance to Antibiotics: -
A. macra; 30 μg
  Resistance to Antibiotics: -

## CCC[C@@H]1C[C@@H](C(=O)N[C@@H]([C@H]2O[C@H](SC)[C@H](O)[C@@H](O)[C@H]2O)[C@@H](C)O)N(C)C1 [Lincomycin]
A. macra; 2 μg
  Resistance to Antibiotics: +
